Experimental data from patent US4740501A (priority 1985, dated 1988).
Where “and” joins values, the source holds several entries; their conditions need not be identical. Equal entries are not always repeated.

Key:
[1] = system: B-16 melanoma cell layers; experiment: Tumor cell survival (trypan blue), continuous exposure; format: cell-based, Mouse
[2] = system: 5-78 T-lymphoma; experiment: as above; format: cell-based, Rabbit
[3] = system: Hairy cell leukemia; experiment: Survival of fresh human leukemic cells, continuous exposure; format: cell-based
[4] = system: L-1210 leukemia cells; experiment: Bioassay of tumorigenicity of in vitro treated tumor cells in syngeneic hosts; format: in vivo, BDf1 mice; settings: for MEAN SURVIVAL TIME (MST) of recipients: L-1210, control 10
Excerpt: Suspensions of untreated and tripeptide treated MJY-alpha mammary tumor, B-16 melanoma, and L-1210 leukemia cells were adjusted to a concentration of 1×10^7 cells/ml based on the initial tumor cell concentration before the tripeptide exposure. Tumor cells were inoculated into syngeneic hosts at a concentration of 1×10^6 cells in […]. Female BALB/c/Crgl recipients of MJY-alpha mammary tumor cells and male C57BL/6/Jx hosts receiving B16 melanoma cells were inoculated subcutaneously; BDf1 mice were given intraperitoneal injections of L-1210 cells. Subcutaneous tumors were measured along their long and short axes every 1 to 3 days; tumor size is reported as the product of the two measurements (mm^2). The examination periods for mice receiving L-1210, MJY-alpha and B-16 tumor grafts were 45, 80, and 85 days, respectively. All mice were autopsied at the time of death or sacrifice.

[5] = system: L1210/L-PAM leukemia; experiment: cells; format: cell-based, mice
[6] = system: P388/L-PAM leukemia; experiment: cells; format: cell-based, mice
[7] = system: L1210 leukemia cells; experiment: Tumorigenicity of in vitro treated leukemia cells in BDF1 recipients; format: in vivo, BDF1 mice; settings: for MST: L1210, control 10
Experimental: All in vitro PTT.119 and L-PAM treatment of cells were carried out at 37° C. in the appropriate complete growth media containing 10% or 18% sera. L1210, L1210/L-PAM and P388/L-PAM cell suspensions of 1×10^6 cells/ml were subjected to a single 15, 30 or 60 min pulse exposure to 3.75, 7.5 and 15 uM PTT.119 or L-PAM. Following treatment, media were removed by pelleting the cells at 200×g for 9 min at 5° C. Cells were then gently washed twice with fresh growth media and finally resuspended in RPMI-1630 medium with 10% FBS for in vitro cultures.
Suspensions of PTT.119 or L-PAM treated cells, and control leukemia cells were adjusted to 1×10^7 cells/ml based on tumor cell concentrations prior to drug exposure. Syngeneic female BDF1 (BALB/c×DBA/2)f, mice weighing 20 to 26 g received intraperitoneal injections of 1×10^6 cells. Mice were monitored daily throughout the 45 day examination period and were autopsied at the time of death.

[8] = system: L1210S; experiment: cells; format: cell-based
[9] = system: MMTV polypeptides; format: cell-based, mouse
[10] = system: MJY-alpha mammary tumor cell layers; experiment: Morphology of treated cell layers (May-Grunwald-Giemsa); format: cell-based; settings: 5 and 10 ug/ml for 15 to 60 minutes
Experimental: Confluent MJY-alpha mammery tumor cell layers were treated with […] or diluent for 15 or 60 minutes, washed, and then incubated in growth medium. Representative cell layers were fixed and stained with May-Grunwald-Giemsastain from one (1) to seven (7) days after treatment as specified. Hemicysts or domes which are usually observed in short-term cultures of murine, MMTV-induced mammary tumors are not present in MJY-alpha cultures (FIG. 12a and b). […] Cellular pseudopodia were withdrawn and the cytoplasm appeared condensed around the nuclei (FIG. 12c and d). The most striking feature of exposure to high concentrations of PTT.119 was the ruffling of the plasma membrane and the formation of vesicles and blebs. […] This alteration was closely followed by visible increases in the cytosol volume or rarefaction of the cytoplasm (FIG. 12f). The degree of further pathological alterations of MJY-alpha mammary tumor cells was dependent on the dosage of PTT.119 and included lobulation and fragmentation of the nuclei, and the formation of multinuclear cells (FIG. 12f and h). […] Chromosomal condensation was not inhibited in multinucleated cells or in cells with highly lobulated or fragmented nuclei (FIG. 12h).

## CCOC(=O)[C@H](CCSC)NC(=O)[C@H](Cc1cccc(N(CCCl)CCCl)c1)NC(=O)[C@@H](N)Cc1ccc(F)cc1.Cl [PTT.119, 3-(p-fluorophenyl)-L-alanyl-3-[m-bis(2-chloroethyl)aminophenyl]-L-alanyl-L-methionine ethyl ester hydrochloride]
[1]; 5 ug/ml, 1 hr
  % tumor cell survival: 100%
[1]; 5 ug/ml, 4 hr
  % tumor cell survival: 100%
[1]; 5 ug/ml, 8 hr
  % tumor cell survival: 100%
[1]; 5 ug/ml, 24 hr
  % tumor cell survival: 74%
[1]; 10 ug/ml, 1 hr
  % tumor cell survival: 100%
[1]; 10 ug/ml, 4 hr
  % tumor cell survival: 100%
[1]; 10 ug/ml, 8 hr
  % tumor cell survival: 63%
[1]; 10 ug/ml, 24 hr
  % tumor cell survival: 64%
[1]; 25 ug/ml, 1 hr
  % tumor cell survival: 100%
[1]; 25 ug/ml, 4 hr
  % tumor cell survival: 100%
[1]; 25 ug/ml, 8 hr
  % tumor cell survival: 92%
[1]; 25 ug/ml, 24 hr
  % tumor cell survival: 60%
[1]; 50 ug/ml, 1 hr
  % tumor cell survival: 100%
[1]; 50 ug/ml, 4 hr
  % tumor cell survival: 100%
[1]; 50 ug/ml, 8 hr
  % tumor cell survival: 58%
[1]; 50 ug/ml, 24 hr
  % tumor cell survival: 33%
[2]; 5 ug/ml, 1 hr
  % tumor cell survival: 100%
[2]; 5 ug/ml, 4 hr
  % tumor cell survival: 88%
[2]; 5 ug/ml, 24 hr
  % tumor cell survival: 66%
[2]; 10 ug/ml, 1 hr
  % tumor cell survival: 89%
[2]; 10 ug/ml, 4 hr
  % tumor cell survival: 61%
[2]; 10 ug/ml, 24 hr
  % tumor cell survival: 49%
[2]; 25 ug/ml, 1 hr
  % tumor cell survival: 75%
[2]; 25 ug/ml, 4 hr
  % tumor cell survival: 32%
[2]; 25 ug/ml, 8 hr
  % tumor cell survival: 14%
[2]; 25 ug/ml, 24 hr
  % tumor cell survival: 6%
[2]; 50 ug/ml, 1 hr
  % tumor cell survival: 57%
[2]; 50 ug/ml, 4 hr
  % tumor cell survival: 4%
[2]; 50 ug/ml, 24 hr
  % tumor cell survival: 2%
[3]; 5 ug/ml, 1 hr
  % tumor cell survival: 100%
[3]; 5 ug/ml, 4 hr
  % tumor cell survival: 80%
[3]; 5 ug/ml, 24 hr
  % tumor cell survival: 34%
[3]; 10 ug/ml, 1 hr
  % tumor cell survival: 100%
[3]; 10 ug/ml, 4 hr
  % tumor cell survival: 71%
[3]; 10 ug/ml, 24 hr
  % tumor cell survival: 81%
[3]; 25 ug/ml, 1 hr
  % tumor cell survival: 92%
[3]; 25 ug/ml, 4 hr
  % tumor cell survival: 71%
[3]; 25 ug/ml, 24 hr
  % tumor cell survival: 12%
[3]; 50 ug/ml, 1 hr
  % tumor cell survival: 37%
[3]; 50 ug/ml, 4 hr
  % tumor cell survival: 21%
[3]; 50 ug/ml, 24 hr
  % tumor cell survival: 7%
[4]; 1 ug/ml, 15 min
  MEAN SURVIVAL TIME (MST) of recipients: 10 days
[4]; 1 ug/ml, 30 min
  MEAN SURVIVAL TIME (MST) of recipients: 10 days
[4]; 1 ug/ml, 60 min
  MEAN SURVIVAL TIME (MST) of recipients: 11 days
[4]; 1 ug/ml, 120 min
  MEAN SURVIVAL TIME (MST) of recipients: 13 days
[4]; 5 ug/ml, 15 min
  MEAN SURVIVAL TIME (MST) of recipients: 13 days
[4]; 5 ug/ml, 30 min
  MEAN SURVIVAL TIME (MST) of recipients: 21 days
[4]; 5 ug/ml, 60 min
  MEAN SURVIVAL TIME (MST) of recipients: 32 days
[4]; 10 ug/ml, 15 min
  MEAN SURVIVAL TIME (MST) of recipients: 8 days
[4]; L-1210 cells treated with 5 ug for 30 min
  ILS (increased life span): 110%
[4]; L-1210 cells treated with 5 ug for 60 min
  ILS (increased life span): 220%
[4]; L-1210 cells treated with 5 ug for 2 hr
  tumor growth in recipient mice: No tumor growth
[4]; L-1210 cells treated with 10 ug for 30 min or longer
  tumor growth in recipient mice: No tumor growth
[5]
  T.C.D.100: 30.0
  surviving fraction at end of examination period: 0.8-3%
[5]; 3.75 µM
  percentage of viable cells: 40-50%
[5]; Mus musculus, L1210/LPAM, 24 h, read-out: T.C.D.50
  IC50: 3 µM
[6]
  T.C.D.100: 22.5
  surviving fraction at end of examination period: 0-0.5%
[6]; 3.75 µM
  percentage of viable cells: 0-1%
[6]; Mus musculus, P388, 24 h, read-out: T.C.D.50
  IC50: 5 µM
[7]; 7.5 uM, 30 min
  MST: 21 days
[7]; 7.5 uM, 60 min
  MST: 32 days
[7]; 15 uM, 15 min
  MST: 8 days
[7]; L1210 cells, 7.5 and 15 uM, every group
  mice free of tumor at end of 45-day examination period: 80-100%
[8]; 24 h, read-out: T.C.D.50
  IC50: 2.38 µM
[8]; L1210S, 24 hours exposure
  T.C.D.100: 7.5 µM
[9]
  decrease of level of p24 compared to virions from solvent cultures: 36%
  level of nonglycosylated protein p24 in MMTV particles: substantial decreases
  level of p24 protein in the virion core: diminution
  reduction in p24: 71%
  relative level of p24 compared to control: 35-40%
[9]; hydrochloride
  relative contribution of p24 in the virions, % of control level: 54% and 74% and 65%
[10]
  appearance of cell layers: appeared unchanged
